This is an account of results in patent US20210047304A1, “Bromodomain Inhibitors” (AbbVie Inc., priority 2016, published 2021).

As a reminder, the Ki is the dissociation constant of the complex between target and ligand, obtained from inhibition or displacement.

The target in this assay is BRD4 (BDI_K57-E168) (Homo sapiens, UniProt O60885). The assay can be described thus: TR-FRET bromodomain binding assay, BRD4 BDI. Background: In TR-FRET formats the signal depends on donor and acceptor labels being close together.
In turn, `Cc1cc(F)cc(C)c1Oc1ccc(C(C)(C)O)cc1-c1cn(C)c(=O)cc1O[C@H]1CC[C@H](n2nccc2O)CC1` [Example 114, 5-[2-(4-fluoro-2,6-dimethylphenoxy)-5-(2-hydroxypropan-2-yl)phenyl]-4-{[trans-4-(5-hydroxy-1H-pyrazol-1-yl)cyclohexyl]oxy}-1-methylpyridin-2(1H)-one] gave a Ki of 4.66 µM.
In turn, `Cc1cccc(C)c1Oc1ccc(CN(C)C(N)=O)cc1-c1cn(C)c(=O)cc1O[C@H]1CC[C@H](NC(=O)C2(C)CC2)CC1` [Example 115, N-[trans-4-({5-[5-{[carbamoyl(methyl)amino]methyl}-2-(2,6-dimethylphenoxy)phenyl]-1-methyl-2-oxo-1,2-dihydropyridin-4-yl}oxy)cyclohexyl]-1-methylcyclopropane-1-carboxamide] displayed a Ki of 2.92 µM.
For the compound `CC(=O)N([C@H](C)c1ccc(Oc2c(C)cccc2C)c(-c2cn(C)c(=O)cc2O[C@H]2CC[C@H](NC(=O)C3(C)CC3)CC2)c1)[C@@H](C)c1ccccc1` [Example 116, N-{trans-4-[(5-{5-[(1R)-1-{acetyl[(1S)-1-phenylethyl]amino}ethyl]-2-(2,6-dimethylphenoxy)phenyl}-1-methyl-2-oxo-1,2-dihydropyridin-4-yl)oxy]cyclohexyl}-1-methylcyclopropane-1-carboxamide], the inhibition constant (Ki) is more than 13 µM.
In the case of `Cc1cc(F)cc(C)c1Oc1ccc(C(C)(C)O)cc1-c1cn(C)c(=O)cc1O[C@H]1CC[C@H](NC(=O)C(F)(F)F)CC1` [Example 117, 2,2,2-trifluoro-N-[trans-4-({5-[2-(4-fluoro-2,6-dimethylphenoxy)-5-(2-hydroxypropan-2-yl)phenyl]-1-methyl-2-oxo-1,2-dihydropyridin-4-yl}oxy)cyclohexyl]acetamide] it was 3.57 µM; in that of `Cc1cc(F)cc(C)c1Oc1ccc(C(C)(C)O)cc1-c1cn(C)c(=O)cc1O[C@H]1CC[C@H](NC(=O)CC(C)(C)CO)CC1` [Example 118, N-[trans-4-({5-[2-(4-fluoro-2,6-dimethylphenoxy)-5-(2-hydroxypropan-2-yl)phenyl]-1-methyl-2-oxo-1,2-dihydropyridin-4-yl}oxy)cyclohexyl]-4-hydroxy-3,3-dimethylbutanamide], 1.91 µM.
In the case of `Cc1cc(F)cc(C)c1Oc1ccc(C(C)(C)O)cc1-c1cn(C)c(=O)cc1O[C@H]1CC[C@H](NC(=O)CCC(C)(C)O)CC1` [Example 119, N-[trans-4-({5-[2-(4-fluoro-2,6-dimethylphenoxy)-5-(2-hydroxypropan-2-yl)phenyl]-1-methyl-2-oxo-1,2-dihydropyridin-4-yl}oxy)cyclohexyl]-4-hydroxy-4-methylpentanamide] it was 2.81 µM; in that of `Cc1cc(F)cc(C)c1Oc1ccc(C(C)(C)O)cc1-c1cn(C)c(=O)cc1O[C@H]1CC[C@H](N2CC(C)(C)CC2=O)CC1` [Example 120, 4-{[trans-4-(4,4-dimethyl-2-oxopyrrolidin-1-yl)cyclohexyl]oxy}-5-[2-(4-fluoro-2,6-dimethylphenoxy)-5-(2-hydroxypropan-2-yl)phenyl]-1-methylpyridin-2(1H)-one], 0.891 µM; in that of `Cc1cc(F)cc(C)c1Oc1ccc(C(C)(C)O)cc1-c1cn(C)c(=O)cc1O[C@H]1CC[C@H](N2NC(=O)CC2=O)CC1` [Example 121, 1-[trans-4-({5-[2-(4-fluoro-2,6-dimethylphenoxy)-5-(2-hydroxypropan-2-yl)phenyl]-1-methyl-2-oxo-1,2-dihydropyridin-4-yl}oxy)cyclohexyl]pyrazolidine-3,5-dione], more than 13 µM.
Next, `Cc1cc(F)cc(C)c1Oc1ccc(C(C)(C)O)cc1-c1cn(C)c(=O)cc1O[C@H]1CC[C@H](NC(=O)N2CCOCC2)CC1` [Example 122, N-[trans-4-({5-[2-(4-fluoro-2,6-dimethylphenoxy)-5-(2-hydroxypropan-2-yl)phenyl]-1-methyl-2-oxo-1,2-dihydropyridin-4-yl}oxy)cyclohexyl]morpholine-4-carboxamide]: 3.67 µM.
For `Cc1cc(F)cc(C)c1Oc1ccc(C(C)(C)O)cc1-c1cn(C)c(=O)cc1O[C@H]1CC[C@H](NC(=O)N2CCNC2=O)CC1` [Example 123, N-[trans-4-({5-[2-(4-fluoro-2,6-dimethylphenoxy)-5-(2-hydroxypropan-2-yl)phenyl]-1-methyl-2-oxo-1,2-dihydropyridin-4-yl}oxy)cyclohexyl]-2-oxoimidazolidine-1-carboxamide], the Ki was more than 13 µM.
Next, `Cc1cc(F)cc(C)c1Oc1ccc(C(C)(C)O)cc1-c1cn(C)c(=O)cc1O[C@H]1CC[C@H](N2C(=O)N[C@@H](C)C2=O)CC1` [Example 124, (5S)-3-[trans-4-({5-[2-(4-fluoro-2,6-dimethylphenoxy)-5-(2-hydroxypropan-2-yl)phenyl]-1-methyl-2-oxo-1,2-dihydropyridin-4-yl}oxy)cyclohexyl]-5-methylimidazolidine-2,4-dione]: more than 13 µM; `Cc1cc(F)cc(C)c1Oc1ccc(C(C)(C)O)cc1-c1cn(C)c(=O)cc1O[C@H]1CC[C@H](N2C(=O)CNC2=O)CC1` [Example 125, 3-[trans-4-({5-[2-(4-fluoro-2,6-dimethylphenoxy)-5-(2-hydroxypropan-2-yl)phenyl]-1-methyl-2-oxo-1,2-dihydropyridin-4-yl}oxy)cyclohexyl]imidazolidine-2,4-dione]: more than 13 µM.
Next, `CCN1CC(=O)N([C@H]2CC[C@H](Oc3cc(=O)n(C)cc3-c3cc(C(C)(C)O)ccc3Oc3c(C)cc(F)cc3C)CC2)C1=O` [Example 127, 1-ethyl-3-[trans-4-({5-[2-(4-fluoro-2,6-dimethylphenoxy)-5-(2-hydroxypropan-2-yl)phenyl]-1-methyl-2-oxo-1,2-dihydropyridin-4-yl}oxy)cyclohexyl]imidazolidine-2,4-dione]: 8.85 µM.
Next, `CNC(=O)N[C@H]1CC[C@H](Oc2cc(=O)n(C)cc2-c2cc(C(C)(C)O)ccc2Oc2c(C)cc(F)cc2C)CC1` [Example 128, N-[trans-4-({5-[2-(4-fluoro-2,6-dimethylphenoxy)-5-(2-hydroxypropan-2-yl)phenyl]-1-methyl-2-oxo-1,2-dihydropyridin-4-yl}oxy)cyclohexyl]-N′-methylurea]: 2.11 µM; `Cc1ccc(=O)n([C@H]2CC[C@H](Oc3cc(=O)n(C)cc3-c3cc(C(C)(C)O)ccc3Oc3c(C)cc(F)cc3C)CC2)n1` [Example 130, 2-[trans-4-({5-[2-(4-fluoro-2,6-dimethylphenoxy)-5-(2-hydroxypropan-2-yl)phenyl]-1-methyl-2-oxo-1,2-dihydropyridin-4-yl}oxy)cyclohexyl]-6-methylpyridazin-3(2H)-one]: 3.19 µM; `Cc1cc(F)cc(C)c1Oc1ccc(C(C)(C)O)cc1-c1cn(C)c(=O)cc1O[C@H]1CC[C@H](N2C(=O)N[C@H](C(C)C)C2=O)CC1` [Example 131, (5R)-3-[trans-4-({5-[2-(4-fluoro-2,6-dimethylphenoxy)-5-(2-hydroxypropan-2-yl)phenyl]-1-methyl-2-oxo-1,2-dihydropyridin-4-yl}oxy)cyclohexyl]-5-(propan-2-yl)imidazolidine-2,4-dione]: 6.32 µM.
In turn, `Cc1cc(F)cc(C)c1Oc1ccc(C(C)(C)O)cc1-c1cn(C)c(=O)cc1O[C@H]1CC[C@H](N2C(=O)N[C@H](C)C2=O)CC1` [Example 132, (5R)-3-[trans-4-({5-[2-(4-fluoro-2,6-dimethylphenoxy)-5-(2-hydroxypropan-2-yl)phenyl]-1-methyl-2-oxo-1,2-dihydropyridin-4-yl}oxy)cyclohexyl]-5-methylimidazolidine-2,4-dione] registered a Ki of 4.21 µM.
In the case of `CC=C1NC(=O)N([C@H]2CC[C@H](Oc3cc(=O)n(C)cc3-c3cc(C(C)(C)O)ccc3Oc3c(C)cc(F)cc3C)CC2)C1=O` [Example 133, 5-ethylidene-3-[trans-4-({5-[2-(4-fluoro-2,6-dimethylphenoxy)-5-(2-hydroxypropan-2-yl)phenyl]-1-methyl-2-oxo-1,2-dihydropyridin-4-yl}oxy)cyclohexyl]imidazolidine-2,4-dione] it was more than 13 µM; in that of `COCCN1CC(=O)N([C@H]2CC[C@H](Oc3cc(=O)n(C)cc3-c3cc(C(C)(C)O)ccc3Oc3c(C)cc(F)cc3C)CC2)C1=O` [Example 135, 3-[trans-4-({5-[2-(4-fluoro-2,6-dimethylphenoxy)-5-(2-hydroxypropan-2-yl)phenyl]-1-methyl-2-oxo-1,2-dihydropyridin-4-yl}oxy)cyclohexyl]-1-(2-methoxyethyl)imidazolidine-2,4-dione], 3.68 µM; in that of `Cc1cc(F)cc(C)c1Oc1ccc(C(C)(C)O)cc1-c1cn(C)c(=O)cc1O[C@H]1CC[C@H](N2C(=O)NC3(CC3)C2=O)CC1` [Example 136, 6-[trans-4-({5-[2-(4-fluoro-2,6-dimethylphenoxy)-5-(2-hydroxypropan-2-yl)phenyl]-1-methyl-2-oxo-1,2-dihydropyridin-4-yl}oxy)cyclohexyl]-4,6-diazaspiro[2.4]heptane-5,7-dione], 2.47 µM.
In the case of `Cc1cc(F)cc(C)c1Oc1ccc(C(C)(C)O)cc1-c1cn(C)c(=O)cc1O[C@H]1CC[C@H](N2C(=O)[C@H]3CCCN3C2=O)CC1` [Example 138, (7aR)-2-[trans-4-({5-[2-(4-fluoro-2,6-dimethylphenoxy)-5-(2-hydroxypropan-2-yl)phenyl]-1-methyl-2-oxo-1,2-dihydropyridin-4-yl}oxy)cyclohexyl]tetrahydro-1H-pyrrolo[1,2-c]imidazole-1,3(2H)-dione] it was 12.8 µM; in that of `Cc1cc(F)cc(C)c1Oc1ccc(C(C)(C)O)cc1-c1cn(C)c(=O)cc1O[C@H]1CC[C@H](NC(=O)C(C)(C)N)CC1` [Example 139, N-[trans-4-({5-[2-(4-fluoro-2,6-dimethylphenoxy)-5-(2-hydroxypropan-2-yl)phenyl]-1-methyl-2-oxo-1,2-dihydropyridin-4-yl}oxy)cyclohexyl]-2-methylalaninamide], 0.645 µM; in that of `Cc1cc(F)cc(C)c1Oc1ccc(C(C)(C)O)cc1-c1cn(C)c(=O)cc1O[C@H]1CC[C@H](N2C(=O)NC(C)(C)C2=O)CC1` [Example 140, 3-[trans-4-({5-[2-(4-fluoro-2,6-dimethylphenoxy)-5-(2-hydroxypropan-2-yl)phenyl]-1-methyl-2-oxo-1,2-dihydropyridin-4-yl}oxy)cyclohexyl]-5,5-dimethylimidazolidine-2,4-dione], 11.2 µM.
